Experimental data published in patent US11919965B2, “Methods of treating multiple myeloma with bispecific anti-BCMA x anti-CD3 antibodies” (Regeneron Pharmaceuticals, Inc., priority 2019, dated 2024).
Read-outs that look alike come from different tables or passages of the source.

Experiments:
[1] = tested on: primary multiple myeloma blast cells; assay: FACS cytotoxicity assay, autologous T cell-mediated killing of primary multiple myeloma blast cells; type: cell-based, human; settings: for EC50: read-out: MM Lysis EC50
Experimental: In order to monitor the specific killing of multiple myeloma cells by flow cytometry, bone marrow mononuclear cells (BMMC) from multiple myeloma patients were plated on human stromal cells (HS5) and rested overnight at 37 C. Separately, matching patient peripheral blood mononuclear cells (PBMC) were thawed and cultured in supplemented RPMI media at 1×10^6 cells/mL overnight at 37° C. in order to enrich for lymphocytes by depleting adherent cells. The next day, BMMC were co-incubated with adherent cell-depleted naïve PBMC on stromal cells (HS5) and a serial 10× dilution of BCMA×CD3 bispecific or 1-arm CD3 isotype control (starting concentration 66.7 nM) at 37° C. Cells were removed from cell culture plates at day 3, 4 or 7 and analyzed by FACS. For the assessment of specificity of killing, multiple myeloma cells were gated as single, live, CD90 negative (to exclude stromal cells), CD2 negative, CD56 positive. CD45 was low on multiple myeloma cells in most samples except MM455. Percent of live target cells was reported for the calculation of adjusted survival as follows: Adjusted survival=(R1/R2)*100, where R1=% live target cells in the presence of antibody, and R2=% live target cells in the absence of test antibody.
T cells were gated as CD2 positive, CD56 negative and either CD4 or CD8 positive. T cell activation was reported as the percent of CD25+CD4 or CD8 T cells out of total CD4 or CD8 T cells.

[2] = tested on: BCMA-expressing NCI-H929 multiple myeloma tumors; assay: Xenogenic tumor model, NCI-H929 + human PBMC s.c. in NSG mice, dose response, treatment from implantation (Example 11); type: in vivo, mouse
Experimental: To determine the in vivo efficacy of anti-BCMA×anti-CD3 bispecific antibodies (Abs), a xenogenic tumor study was performed. Immunodeficient NOD.Cg-Prkdc^ScidII2rg^tm1Wjl/SzJ (NSG) mice were subcutaneously implanted with a mixture of 10×10^6 BCMA-expressing NCI-H929 human multiple myeloma tumor cells and 0.5×10^6 human peripheral blood mononuclear cells (PBMC) isolated from a normal, healthy donor. […] The mice were administered these Abs twice per week for a total of seven doses, and tumor growth was assessed over 60 days. While BCMA+NCI-H929 tumors grew similarly in the vehicle- and CD3-binding control-treated mice, both anti-BCMA×anti-CD3 Abs that were tested prevented the growth of tumors in a dose-dependent manner in vivo.
Implantation and measurement of xenogenic tumors: NSG mice were subcutaneously implanted with a mixture of 10×10^6 BCMA-expressing NCI-H929 multiple myeloma cells and 0.5×10^6 PBMC derived from a normal, healthy donor. […] The mice were administered Abs twice per week for a total of seven doses. Tumor growth was measured with calipers twice per week for the duration of the experiment.
Calculation of xenogenic tumor growth and inhibition: In order to determine tumor volume by external caliper, the greatest longitudinal diameter (length in mm) and the greatest transverse diameter (width in mm) were determined. Tumor volumes based on caliper measurements were calculated by the formula: Volume (mm^3)=(length× width^2)/2.

[3] = tested on: BCMA+ OPM-2-luciferase tumors; assay: Xenogenic tumor model, i.v. OPM-2-luciferase in PBMC-engrafted NSG mice, bioluminescence (Example 15); type: in vivo, mouse; settings: 0.4 mg/kg
Experimental: (§1) To determine the in vivo efficacy of anti-BCMA×anti-CD3 bispecific antibodies (Abs), a xenogenic tumor study was performed. On day 0, immunodeficient NOD.Cg-Prkdc^scidII2rg^tm1Wjl/SzJ (NSG) mice were intravenously administered 2×10^6 BCMA^+ OPM-2 human multiple myeloma tumor cells that were engineered to also express firefly luciferase (OPM-2-luciferase cells). On day 10, the mice were intraperitoneally injected with 4×10^6 human peripheral blood mononuclear cells (PBMC) from a normal, healthy donor. […] The mice were administered these Abs twice more on days 25 and 28, for a total of three doses. Tumor growth was assessed through day 61 by measuring tumor bioluminescence (BLI) in anesthetized animals. As a positive control, a group of mice (n=5) was given only OPM-2-luciferase cells, but not PBMC or antibody.
as §1, with “Implantation and measurement” for “To determine the in vivo efficacy”, “of” for “of anti-BCMA×anti-CD3 bispecific antibodies (Abs), a”, “tumors:” for “tumor study was performed.”, “NOD.Cg-Prkdc^scidII2rg^tm1Wkl/SzJ” for “NOD.Cg-Prkdc^scidII2rg^tm1Wjl/SzJ”
Measurement of xenogenic tumor growth: BLI imaging was used to measure tumor burden. Mice were injected IP with 150 mg/kg of the luciferase substrate D-luciferin suspended in PBS. Five minutes after this injection, BLI imaging of the mice was performed under isoflurane anesthesia using the Xenogen IVIS system. Image acquisition was carried out with the field of view at D, subject height of 1.5 cm, and medium binning level with automatic exposure time determined by the Living Image Software. BLI signals were extracted using Living Image software: regions of interest were drawn around each tumor mass and photon intensities were recorded as p/s/cm2/sr.

## REGN5458: anti-BCMA×anti-CD3 bispecific antibody: mAb21581 BCMA heavy chain, mAb7221G CD3 heavy chain and common light chain; SEQ ID NOs 126, 127, 129
[1]; Sample MM2, E:T 1.4, 7 days
  EC50: 0.747 nM
[1]; Sample MM2, newly diagnosed, E:T 1.4, 7 days
  % MM lysis at 66 nM: 88%
[1]; Sample MM369, newly diagnosed, E:T 0.3, 3 days
  % MM lysis at 66 nM: 96%
[1]; Sample MM453, E:T 2.4, 3 days
  EC50: 0.0989 nM
[1]; Sample MM453, newly diagnosed, E:T 2.4, 3 days
  % MM lysis at 66 nM: 82%
[1]; Sample MM455, E:T 0.4, 3 days
  EC50: 3.67 nM
[1]; Sample MM455, progression, treated, E:T 0.4, 3 days
  % MM lysis at 66 nM: 63%
[2]; 0.04 mg/kg
  Average Tumor Size (mm3) ± SEM on Day 7: 30.8 ± 5.5 mm3
  Average Tumor Size (mm3) ± SEM on Day 12: 71.5 ± 22.4 mm3
  Average Tumor Size (mm3) ± SEM on Day 15: 133.4 ± 50.9 mm3
  Average Tumor Size (mm3) ± SEM on Day 19: 413.7 ± 162.7 mm3
  Average Tumor Size (mm3) ± SEM on Day 22: 669.4 ± 248.5 mm3
  Average Tumor Size (mm3) ± SEM on Day 26: 1167.0 ± 431.7 mm3
  Average Tumor Size (mm3) ± SEM on Day 29: 1781.8 ± 620.7 mm3
[2]; 0.4 mg/kg
  Average Tumor Size (mm3) ± SEM on Day 4: 31.9 ± 2.0 mm3
  Average Tumor Size (mm3) ± SEM on Day 7: 11.3 ± 3.0 mm3
  Average Tumor Size (mm3) ± SEM on Day 15: 0 ± 0 mm3
  Average Tumor Size (mm3) ± SEM on Day 19: 0 ± 0 mm3
  Average Tumor Size (mm3) ± SEM on Day 22: 0 ± 0 mm3
  Average Tumor Size (mm3) ± SEM on Day 26: 0 ± 0 mm3
  Average Tumor Size (mm3) ± SEM on Day 29: 0 ± 0 mm3
  Average Tumor Size (mm3) ± SEM on Day 34: 0 ± 0 mm3
  Average Tumor Size (mm3) ± SEM on Day 39: 0 ± 0 mm3
  Average Tumor Size (mm3) ± SEM on Day 42: 0 ± 0 mm3
  Average Tumor Size (mm3) ± SEM on Day 46: 0 ± 0 mm3
  Average Tumor Size (mm3) ± SEM on Day 55: 0 ± 0 mm3
  Average Tumor Size (mm3) ± SEM on Day 60: 0 ± 0 mm3
[2]; 4 mg/kg
  Average Tumor Size (mm3) ± SEM on Day 4: 18.0 ± 1.2 mm3
  Average Tumor Size (mm3) ± SEM on Day 12: 0 ± 0 mm3
  Average Tumor Size (mm3) ± SEM on Day 15: 0 ± 0 mm3
  Average Tumor Size (mm3) ± SEM on Day 19: 0 ± 0 mm3
  Average Tumor Size (mm3) ± SEM on Day 22: 0 ± 0 mm3
  Average Tumor Size (mm3) ± SEM on Day 26: 0 ± 0 mm3
  Average Tumor Size (mm3) ± SEM on Day 29: 0 ± 0 mm3
  Average Tumor Size (mm3) ± SEM on Day 34: 0 ± 0 mm3
  Average Tumor Size (mm3) ± SEM on Day 39: 0 ± 0 mm3
  Average Tumor Size (mm3) ± SEM on Day 42: 0 ± 0 mm3
  Average Tumor Size (mm3) ± SEM on Day 46: 0 ± 0 mm3
  Average Tumor Size (mm3) ± SEM on Day 55: 0 ± 0 mm3
  Average Tumor Size (mm3) ± SEM on Day 60: 0 ± 0 mm3
[3]
  Radiance [p/s/cm2^2/sr] 26 days post-implantation (mean ± SEM): 1.73E+06 ± 8.69E+05 p/s/cm2^2/sr
  Radiance [p/s/cm2^2/sr] 31 days post-implantation (mean ± SEM): 3.50E+06 ± 2.42E+06 p/s/cm2^2/sr
  Radiance [p/s/cm2^2/sr] 34 days post-implantation (mean ± SEM): 4.85E+06 ± 3.24E+06 p/s/cm2^2/sr
  Radiance [p/s/cm2^2/sr] 38 days post-implantation (mean ± SEM): 5.30E+06 ± 3.44E+06 p/s/cm2^2/sr
  Radiance [p/s/cm2^2/sr] 40 days post-implantation (mean ± SEM): 5.06E+06 ± 3.36E+06 p/s/cm2^2/sr
  Radiance [p/s/cm2^2/sr] 47 days post-implantation (mean ± SEM): 7.76E+05 ± 7.85E+04 p/s/cm2^2/sr
  Radiance [p/s/cm2^2/sr] 54 days post-implantation (mean ± SEM): 5.78E+05 ± 1.15E+05 p/s/cm2^2/sr
  Radiance [p/s/cm2^2/sr] 61 days post-implantation (mean ± SEM): 5.23E+05 ± 4.10E+04 p/s/cm2^2/sr
[3]; three doses
  tumor burden: reduced tumor burdens to background levels in the majority of animals
[3]; before first dose (day 21)
  Radiance [p/s/cm2^2/sr] 5 days post-implantation (mean ± SEM): 5.87E+05 ± 2.40E+04 p/s/cm2^2/sr
  Radiance [p/s/cm2^2/sr] 11 days post-implantation (mean ± SEM): 6.19E+05 ± 4.39E+04 p/s/cm2^2/sr
  Radiance [p/s/cm2^2/sr] 20 days post-implantation (mean ± SEM): 1.81E+06 ± 2.37E+05 p/s/cm2^2/sr
